US20230393140A1, “BINDING ASSAYS INVOLVING A PLURALITY OF SYNTHETIC COMPOUNDS, TARGETS, AND COUNTER TARGETS” (SRI International, priority 2020, published 2023)
Numbered stars: 1 amine (or outer) side, 2 acyl side, 3 side chain; on linkers, the order of the positions; unused ones are H or OH. Square brackets hold non-standard residues; d marks the D form. Peptide text beside a SMILES is read from it. * marks the point of attachment. 5FAM = O=C1OC2(c3ccc(O)cc3Oc3cc(O)ccc32)c2ccc(C(=O)*)cc21; NHCH2C6H4(4-CH2CONH2) = NC(=O)Cc1ccc(CN*)cc1; X1 = O=C(Cc1ccc(CN[*:1])cc1)[*:2]

Key:
ASGPR = target: T1, ASGPR (Homo sapiens, UniProt P07306); test: MST binding affinity of resynthesized NNP hits to ASGPR; details: read-out: KD (nM) [95% conf. int]; MST; NNP1 library hit; target ASGPR; one-site binding model
T1 construct: purchased R&D Systems, Inc. 4394-AS
T1 sequence (P07306 1-291): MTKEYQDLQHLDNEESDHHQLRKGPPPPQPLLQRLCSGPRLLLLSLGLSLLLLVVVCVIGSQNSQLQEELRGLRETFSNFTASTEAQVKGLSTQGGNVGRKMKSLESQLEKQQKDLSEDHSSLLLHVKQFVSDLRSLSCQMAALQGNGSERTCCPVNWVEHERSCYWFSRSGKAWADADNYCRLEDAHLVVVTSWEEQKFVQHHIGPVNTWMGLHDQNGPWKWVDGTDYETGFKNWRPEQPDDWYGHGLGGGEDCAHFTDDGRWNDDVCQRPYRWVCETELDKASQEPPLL
Procedure: (§1) Hit binding affinity to various targets were determined using Microscale Thermophoresis (MST). MST experiments were performed on a Monolith NT.115pico (NanoTemper Technologies GmbH, Munich, Germany). Measurements were performed at room temperature, in triplicate with incubation periods of 15, 30 and 45 minutes. […] Targets were labeled using Nanotemper Monolith 2nd Generation Protein Labeling Kits. RED-MALEIMIDE (Maleimide-647-dye) labeling kit was used for K-Ras and RED-NHS (NHS-647-dye) labeling kit was used for IL-6, IL-6R, TNFα and ASGPR. The buffer for the ASGPR contained 20 mM HEPES pH 7.4, 150 mM NaCl, 10 mM MgCl2, 2 mM CaCl2, 0.05% Pluronic F-127, and 1 mM DTT; for IL-6 contained 20 mM HEPES pH 7.4, 150 mM KCl, 10 mM MgCl2, and 0.1% Pluronic F-127; for the soluble IL-6 receptor 20 mM HEPES pH 7.4, 150 mM NaCl, 10 mM MgCl2, and 0.05% Tween-20; for K-Ras 20 mM HEPES pH 7.4, 150 mM NaCl, 10 mM MgCl2, 0.05% Tween-20 and 1 mM DTT; for TNFα 10 mM HEPES pH 7.4, 150 mM NaCl, 10 mM MgCl2, 0.05% Polysorbate-20. Triplicate data was analyzed using MO.AffinityAnalysis software (NanoTemper Technologies GmbH).

IL-6 = target: T2, IL-6 (Homo sapiens, UniProt P05231); test: MST binding affinity of resynthesized NNP hits to IL-6; details: read-out: KD (nM) [95% conf. int], NNP2 library hit, target IL-6, one-site binding model
T2 construct: purchased Creative Biomart IL6-12H
Procedure: as §1

Row | SMILES | Kd (ASGPR) [nM] | Kd (IL-6) [nM]
1 | CC(C)C[C@H](NC(=O)[C@@H](Cc1c[nH]cn1)NC(=O)[C@@H](CC(C)C)NC(=O)[C@H]1CCCN1C(=O)[C@@H](CC(N)=O)NC(=O)Cc1ccc(CNC(=O)[C@H](Cc2ccccc2)NC(=O)[C@@H](Cc2c[nH]cn2)NC(=O)[C@@H](CCCNC(=N)N)NC(=O)[C@@H](CC(N)=O)NC(=O)[C@@H](Cc2ccc(O)cc2)NC(=O)Cc2ccc(CNC(=O)[C@H](CC(C)C)NC(=O)[C@@H](CCCNC(=N)N)NC(=O)[C@@H](CCCCN)NC(=O)[C@@H](CCC(=O)O)NC(=O)[C@@H](Cc3ccccc3)NC(=O)Cc3ccc(CNC(=O)[C@H](Cc4ccccc4)NC(=O)[C@@H](CO)NC(=O)[C@@H](CCC(=O)O)NC(=O)[C@H]4CCCN4C(=O)[C@@H](CC(C)C)NC(=O)c4ccc5c(c4)C(=O)OC54c5ccc(O)cc5Oc5cc(O)ccc54)cc3)cc2)cc1)C(=O)NCc1ccc(CC(=O)N[C@H](CCCNC(=N)N)C(=O)N[C@H](Cc2ccccc2)C(=O)N2CCC[C@@H]2C(=O)N[C@@H](C(=O)NCC(=O)NCc2ccc(CC(=O)N[C@H](CC(C)C)C(=O)N3CCC[C@@H]3C(=O)N[C@H](CCCNC(=N)N)C(=O)N[C@@H](C(=O)NCC(=O)NCc3ccc(CC(N)=O)cc3)[C@H](C)O)cc2)C(C)C)cc1 [ASGPR-9-10] (5FAM-[dL][dP][dE][dS]F[X1][dF][dE][dK][dR]L[X1][dY][dN][dR][dH]F[X1][dN][dP][dL][dH]L[X1][dR][dF][dP][dV]G[X1][dL][dP][dR][dT]G-{NHCH2C6H4(4-CH2CONH2)}) | 97 | –
2 | CC(C)C[C@H](NC(=O)[C@@H](Cc1c[nH]c2ccccc12)NC(=O)[C@@H](CCC(=O)O)NC(=O)[C@@H](CO)NC(=O)[C@@H](CCCNC(=N)N)NC(=O)Cc1ccc(CNC(=O)[C@H](Cc2ccccc2)NC(=O)[C@@H](Cc2c[nH]cn2)NC(=O)[C@@H](CCCNC(=N)N)NC(=O)[C@@H](CC(N)=O)NC(=O)[C@@H](Cc2ccc(O)cc2)NC(=O)Cc2ccc(CNC(=O)[C@H](CC(C)C)NC(=O)[C@@H](CCCNC(=N)N)NC(=O)[C@@H](CCCCN)NC(=O)[C@@H](CCC(=O)O)NC(=O)[C@@H](Cc3ccccc3)NC(=O)Cc3ccc(CNC(=O)[C@H](Cc4ccccc4)NC(=O)[C@@H](CO)NC(=O)[C@@H](CCC(=O)O)NC(=O)[C@H]4CCCN4C(=O)[C@@H](CC(C)C)NC(=O)c4ccc5c(c4)C(=O)OC54c5ccc(O)cc5Oc5cc(O)ccc54)cc3)cc2)cc1)C(=O)NCc1ccc(CC(=O)N[C@H](CCCNC(=N)N)C(=O)N[C@H](Cc2ccccc2)C(=O)N2CCC[C@@H]2C(=O)N[C@@H](C(=O)NCC(=O)NCc2ccc(CC(=O)N[C@H](CC(C)C)C(=O)N3CCC[C@@H]3C(=O)N[C@H](CCCNC(=N)N)C(=O)N[C@@H](C(=O)NCC(=O)NCc3ccc(CC(N)=O)cc3)[C@H](C)O)cc2)C(C)C)cc1 [ASGPR-9-11] (5FAM-[dL][dP][dE][dS]F[X1][dF][dE][dK][dR]L[X1][dY][dN][dR][dH]F[X1][dR][dS][dE][dW]L[X1][dR][dF][dP][dV]G[X1][dL][dP][dR][dT]G-{NHCH2C6H4(4-CH2CONH2)}) | 0.22 | –
3 | CC(C)C[C@H](NC(=O)[C@@H](CCCNC(=N)N)NC(=O)[C@@H](CCCCN)NC(=O)[C@@H](CCC(=O)O)NC(=O)[C@@H](Cc1ccccc1)NC(=O)Cc1ccc(CNC(=O)[C@H](Cc2ccccc2)NC(=O)[C@@H](CO)NC(=O)[C@@H](CCC(=O)O)NC(=O)[C@H]2CCCN2C(=O)[C@@H](CC(C)C)NC(=O)c2ccc3c(c2)C(=O)OC32c3ccc(O)cc3Oc3cc(O)ccc32)cc1)C(=O)NCc1ccc(CC(=O)N[C@H](Cc2ccc(O)cc2)C(=O)N[C@H](CC(N)=O)C(=O)N[C@H](CCCNC(=N)N)C(=O)N[C@H](Cc2c[nH]cn2)C(=O)N[C@@H](Cc2ccccc2)C(=O)NCc2ccc(CC(=O)N[C@H](Cc3ccc(O)cc3)C(=O)N[C@@H](C(=O)N3CCC[C@@H]3C(=O)N[C@H](CCCNC(=N)N)C(=O)N[C@@H](C)C(=O)NCc3ccc(CC(=O)N[C@H](CCCNC(=N)N)C(=O)N[C@H](Cc4ccccc4)C(=O)N4CCC[C@@H]4C(=O)N[C@@H](C(=O)NCC(=O)NCc4ccc(CC(=O)N[C@H](CC(C)C)C(=O)N5CCC[C@@H]5C(=O)N[C@H](CCCNC(=N)N)C(=O)N[C@@H](C(=O)NCC(=O)NCc5ccc(CC(N)=O)cc5)[C@H](C)O)cc4)C(C)C)cc3)[C@H](C)O)cc2)cc1 [ASGPR-9-12] (5FAM-[dL][dP][dE][dS]F[X1][dF][dE][dK][dR]L[X1][dY][dN][dR][dH]F[X1][dY][dT][dP][dR]A[X1][dR][dF][dP][dV]G[X1][dL][dP][dR][dT]G-{NHCH2C6H4(4-CH2CONH2)}) | 6 | –
4 | CC(C)C[C@H](NC(=O)CNC(=O)[C@@H](Cc1c[nH]cn1)NC(=O)[C@@H](CCCNC(=N)N)NC(=O)[C@H]1CCCN1C(=O)Cc1ccc(CNC(=O)[C@H](Cc2ccccc2)NC(=O)[C@@H](CO)NC(=O)[C@@H](CCCNC(=N)N)NC(=O)[C@H]2CCCN2C(=O)CNC(=O)Cc2ccc(CNC(=O)[C@H](C)NC(=O)[C@@H](CCCNC(=N)N)NC(=O)[C@H]3CCCN3C(=O)[C@H](NC(=O)CNC(=O)Cc3ccc(CNC(=O)[C@H](Cc4ccccc4)NC(=O)[C@@H](CO)NC(=O)[C@@H](CCC(=O)O)NC(=O)[C@H]4CCCN4C(=O)[C@@H](CC(C)C)NC(=O)c4ccc5c(c4)C(=O)OC54c5ccc(O)cc5Oc5cc(O)ccc54)cc3)C(C)C)cc2)cc1)C(=O)NCc1ccc(CC(=O)N[C@H](CCCNC(=N)N)C(=O)N[C@H](Cc2ccccc2)C(=O)N2CCC[C@@H]2C(=O)N[C@@H](C(=O)NCC(=O)NCc2ccc(CC(=O)N[C@H](CC(C)C)C(=O)N3CCC[C@@H]3C(=O)N[C@H](CCCNC(=N)N)C(=O)N[C@@H](C(=O)NCC(=O)NCc3ccc(CC(N)=O)cc3)[C@H](C)O)cc2)C(C)C)cc1 [ASGPR-9-14] (5FAM-[dL][dP][dE][dS]F[X1]G[dV][dP][dR]A[X1]G[dP][dR][dS]F[X1][dP][dR][dH]GL[X1][dR][dF][dP][dV]G[X1][dL][dP][dR][dT]G-{NHCH2C6H4(4-CH2CONH2)}) | 20 | –
5 | CC(C)C[C@H](NC(=O)[C@@H](CCCNC(=N)N)NC(=O)[C@@H](Cc1c[nH]c2ccccc12)NC(=O)Cc1ccc(CNC(=O)[C@H](Cc2ccccc2)NC(=O)[C@@H](CO)NC(=O)[C@@H](CCCNC(=N)N)NC(=O)Cc2ccc(CNC(=O)[C@@H](NC(=O)[C@@H](CO)NC(=O)[C@@H](Cc3ccc(O)cc3)NC(=O)Cc3ccc(CNC(=O)[C@H](CC(C)C)NC(=O)[C@@H](CC(C)C)NC(=O)[C@@H](Cc4ccc(O)cc4)NC(=O)c4ccc5c(c4)C(=O)OC54c5ccc(O)cc5Oc5cc(O)ccc54)cc3)C(C)C)cc2)cc1)C(=O)NCc1ccc(CC(=O)N[C@H](Cc2c[nH]c3ccccc23)C(=O)N[C@H](CCCNC(=N)N)C(=O)N[C@H](C(=O)NCc2ccc(CC(=O)N[C@H](CCCNC(=N)N)C(=O)N[C@H](Cc3ccc(O)cc3)C(=O)N[C@@H](CC(C)C)C(=O)NCc3ccc(CC(=O)N[C@H](CCC(=O)O)C(=O)N[C@H](Cc4ccc(O)cc4)C(=O)N[C@H](C(=O)NCc4ccc(CC(=O)N[C@H](CCCCN)C(=O)N[C@H](Cc5ccccc5)C(=O)N[C@@H](Cc5ccccc5)C(=O)NCc5ccc(CC(=O)N[C@H](Cc6ccc(O)cc6)C(=O)N[C@H](CCCNC(=N)N)C(=O)N[C@@H](Cc6ccccc6)C(=O)NCc6ccc(CC(N)=O)cc6)cc5)cc4)C(C)C)cc3)cc2)C(C)C)cc1 [IL6-65-1] (5FAM-[dY][dL]L[X1][dY][dS]V[X1][dR][dS]F[X1][dW][dR]L[X1][dW][dR]V[X1][dR][dY]L[X1][dE][dY]V[X1][dK][dF]F[X1][dY][dR]F-{NHCH2C6H4(4-CH2CONH2)}) | – | 500
